Data: ChEMBL document CHEMBL1201862, “PubChem BioAssay data set” (2004)
Calls of active or inactive are those of the source. *1 amine or outer side, *2 acyl side, *3 side chain or, on linkers, in order; H or OH if unused. Where a SMILES comes first, the peptide text is derived from it. Bridges are numbered along the chain shown (N, C = ends). [ ]: non-standard residue; d: D form. The star is where a group is joined. X56 = CC(C)C(C)C(C(=O)[*:2])N(C)[*:1]; Picolinoyl(3-OH) = O=C(c1ncccc1O)*; NMePhg = CN[CH](C(=O)O)c1ccccc1; Hyp = O=C(O)[CH]1C[CH](O)CN1; Sar = CNCC(=O)O

Legend:
[1] = NIH-3T3 fibroblast cytotoxicity, dose response, cytotoxicity control, cell-based, fluorescence, Alamar Blue, secondary assay (AID 2327); type: functional;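 note: NIH-3T3 mouse fibroblasts cultured with fluconazole at 8 µg/mL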
[2] = fluconazole-exposed Candida albicans growth modulators – fluorescence, retest, confirmation (AID 2467); type: functional, cell-based
[3] = cells; type: functional, cell-based
[4] = cells; type: functional, cell-based; remark: listed apart in the source
[5] = target: Nonstructural protein 1 (Influenza A virus, UniProt Q194T2); type: functional, Influenza A virus (A/California/07/2009(H1N1))
[6] = target: T1, Ubiquitin-conjugating enzyme E2 N (Homo sapiens, UniProt P61088); type: functional;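 note: Dose-response confirmation in a TR-FRET assay detecting UBC13-driven polyubiquitin chain formation, inhibition measured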
T1 sequence (P61088 whole entry): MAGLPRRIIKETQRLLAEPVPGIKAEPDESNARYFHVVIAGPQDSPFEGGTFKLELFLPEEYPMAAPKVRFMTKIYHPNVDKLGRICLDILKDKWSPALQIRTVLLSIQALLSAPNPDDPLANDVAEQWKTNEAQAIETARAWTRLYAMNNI

[7] = viability of uninfected HEp-2 cells – cell-based, HTS, cytotoxicity control for RSV inhibitor project, dose response (AID 2410); type: functional; settings: human respiratory syncytial virus
[8] = system: BJ; experiment: BJ-TERT fibroblast viability loss – cell-based, RAS-independent, luminescence, dose response (AID 1933); type: functional; settings: Homo sapiens
[9] = system: BJ; experiment: cells; type: functional, cell-based; settings: Homo sapiens
[10] = system: BJ; experiment: BJ-TERT-LT-ST fibroblast viability loss – cell-based, RAS-independent, luminescence, dose response (AID 1935); type: functional; settings: Homo sapiens;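 note: BJ fibroblasts immortalized with TERT plus LT and ST oncogenes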
[11] = DRD fibroblast viability loss – cell-based, non-viral oncogenic, luminescence, dose response (AID 1934); type: functional; settings: Homo sapiens
[12] = target: T2, Polyadenylate-binding protein 1 (Homo sapiens, UniProt P11940); experiment: MLLE binding blockers, Cy5 peptide tracer – biochemical, fluorescence polarization, Cy5-PAM2 peptide, secondary, miRNA deadenylation inhibitor project, dose response (AID 602260); type: functional; settings: read-out: IC50_Mean
[13] = target: T2, Polyadenylate-binding protein 1; experiment: MLLE domain peptide-binding blockers, IC50 – biochemical, fluorescence polarization, FITC-PAM2 peptide, dose response (AID 602259); type: functional; settings: read-out: IC50_Mean
[14] = viability of PTEN-deleted HCT116 cells – cell-based, HCT116 PTEN knockout, dose response (AID 1047); type: functional;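 note: HCT116 colon tumor cells with PTEN knocked out; cells exposed to compound for 60 hours before readout; potency for loss of cell viability measured by luminescence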
[15] = target: Glyceraldehyde-3-phosphate dehydrogenase (Homo sapiens, UniProt P04406)
[16] = target: FAD-linked sulfhydryl oxidase ALR (Homo sapiens, UniProt P55789); experiment: ALR-catalysed DTT oxidation blockers – biochemical, H2O2 detection, luminescence, cherry-pick, dose response (AID 493248)
[17] = target: Luciferin 4-monooxygenase (Photinus pyralis, UniProt P08659); experiment: inhibition of purified Photinus pyralis luciferase – biochemical, luminescence, dose response (AID 1891)
[18] = Luminescence Cell-Based Dose Confirmation HTS to Identify Inhibitors of Platelet Dense Granule Release. [Related pubchem assays: 1663 (Primary HTS), 1678 (Summary of Project)]; type: functional
[19] = system: P388/ADR; experiment: cells; type: functional; settings: Mus musculus
[20] = system: SN12K1; experiment: cells; type: functional; settings: Homo sapiens
[21] = system: P388; experiment: cells; type: functional; settings: Mus musculus
[22] = Luminescence Cell-Based Dose Retest to Confirm Inhibitors of Cancer Stem Cells. [Related pubchem assays (depositor defined):AID2717, AID2721]; type: functional; settings: Homo sapiens
[23] = target: Large T antigen (Simian virus 40, UniProt P03070); type: functional, Betapolyomavirus macacae;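 note: Confirmatory-stage PubChem screen for compounds that inhibit SV40 T antigen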
Chain of Large T antigen (P03070 whole entry): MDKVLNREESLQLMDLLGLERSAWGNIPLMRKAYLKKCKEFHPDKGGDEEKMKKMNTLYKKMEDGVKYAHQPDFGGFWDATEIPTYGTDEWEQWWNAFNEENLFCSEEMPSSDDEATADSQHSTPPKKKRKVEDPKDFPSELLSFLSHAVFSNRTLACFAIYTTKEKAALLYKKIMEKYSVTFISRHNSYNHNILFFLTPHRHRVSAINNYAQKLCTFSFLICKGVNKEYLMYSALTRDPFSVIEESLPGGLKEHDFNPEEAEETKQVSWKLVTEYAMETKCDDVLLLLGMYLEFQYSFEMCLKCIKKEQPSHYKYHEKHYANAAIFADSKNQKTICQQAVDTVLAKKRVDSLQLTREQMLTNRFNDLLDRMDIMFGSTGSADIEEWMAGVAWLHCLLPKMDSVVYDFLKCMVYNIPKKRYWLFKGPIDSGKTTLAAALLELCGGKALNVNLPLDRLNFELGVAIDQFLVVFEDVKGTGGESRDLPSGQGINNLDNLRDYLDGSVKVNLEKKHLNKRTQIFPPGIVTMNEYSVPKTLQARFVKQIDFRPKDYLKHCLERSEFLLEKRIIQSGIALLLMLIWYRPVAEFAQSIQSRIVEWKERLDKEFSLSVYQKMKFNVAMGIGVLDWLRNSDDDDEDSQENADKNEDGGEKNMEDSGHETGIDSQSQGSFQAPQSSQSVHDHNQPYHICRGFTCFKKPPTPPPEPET

T2 sequence (P11940 whole entry, the tested form may be a part): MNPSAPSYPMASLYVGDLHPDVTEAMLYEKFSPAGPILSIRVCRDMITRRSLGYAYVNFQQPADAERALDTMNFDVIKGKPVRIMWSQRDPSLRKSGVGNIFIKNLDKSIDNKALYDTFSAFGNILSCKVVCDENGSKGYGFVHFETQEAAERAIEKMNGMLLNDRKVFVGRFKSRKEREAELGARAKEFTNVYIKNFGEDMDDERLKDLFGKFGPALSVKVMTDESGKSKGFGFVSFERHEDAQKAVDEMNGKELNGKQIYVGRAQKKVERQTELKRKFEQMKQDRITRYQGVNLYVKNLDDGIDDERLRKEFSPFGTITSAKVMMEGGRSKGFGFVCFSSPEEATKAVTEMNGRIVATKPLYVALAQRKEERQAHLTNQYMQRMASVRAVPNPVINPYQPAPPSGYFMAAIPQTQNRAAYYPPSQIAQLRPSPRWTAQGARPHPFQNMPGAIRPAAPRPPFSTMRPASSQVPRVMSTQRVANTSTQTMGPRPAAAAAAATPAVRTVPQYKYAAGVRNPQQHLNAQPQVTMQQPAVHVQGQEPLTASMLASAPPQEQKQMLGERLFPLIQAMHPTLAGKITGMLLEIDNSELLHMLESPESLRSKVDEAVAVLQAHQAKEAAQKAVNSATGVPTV
Chain of Luciferin 4-monooxygenase (P08659 whole entry): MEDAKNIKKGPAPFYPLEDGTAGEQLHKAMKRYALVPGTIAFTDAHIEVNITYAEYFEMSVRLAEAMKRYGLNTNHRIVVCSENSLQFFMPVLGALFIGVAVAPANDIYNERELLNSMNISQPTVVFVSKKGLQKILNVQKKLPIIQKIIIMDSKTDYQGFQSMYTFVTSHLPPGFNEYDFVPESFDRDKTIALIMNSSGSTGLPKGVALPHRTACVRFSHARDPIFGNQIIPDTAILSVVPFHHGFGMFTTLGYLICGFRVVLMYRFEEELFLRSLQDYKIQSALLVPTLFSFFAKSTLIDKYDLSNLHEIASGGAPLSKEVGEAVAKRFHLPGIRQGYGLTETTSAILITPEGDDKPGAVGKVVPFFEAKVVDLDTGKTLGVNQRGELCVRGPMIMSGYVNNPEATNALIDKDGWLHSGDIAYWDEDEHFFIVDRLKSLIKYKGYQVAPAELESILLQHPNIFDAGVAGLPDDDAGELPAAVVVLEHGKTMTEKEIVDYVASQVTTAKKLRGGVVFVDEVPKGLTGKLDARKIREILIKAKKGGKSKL
Chain of FAD-linked sulfhydryl oxidase ALR (P55789 whole entry): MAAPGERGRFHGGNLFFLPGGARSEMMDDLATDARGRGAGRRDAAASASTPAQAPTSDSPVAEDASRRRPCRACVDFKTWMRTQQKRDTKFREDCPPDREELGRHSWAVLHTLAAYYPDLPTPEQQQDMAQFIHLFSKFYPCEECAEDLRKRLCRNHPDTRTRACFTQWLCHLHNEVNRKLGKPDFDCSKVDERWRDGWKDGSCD
Chain of Nonstructural protein 1 (Q194T2 whole entry): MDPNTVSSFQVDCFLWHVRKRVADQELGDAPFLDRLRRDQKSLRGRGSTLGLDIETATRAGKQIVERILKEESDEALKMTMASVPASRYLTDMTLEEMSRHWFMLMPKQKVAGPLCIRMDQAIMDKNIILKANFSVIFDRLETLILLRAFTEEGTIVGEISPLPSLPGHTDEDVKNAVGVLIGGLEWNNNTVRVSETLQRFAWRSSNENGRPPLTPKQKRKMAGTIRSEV
Chain of Glyceraldehyde-3-phosphate dehydrogenase (P04406 whole entry): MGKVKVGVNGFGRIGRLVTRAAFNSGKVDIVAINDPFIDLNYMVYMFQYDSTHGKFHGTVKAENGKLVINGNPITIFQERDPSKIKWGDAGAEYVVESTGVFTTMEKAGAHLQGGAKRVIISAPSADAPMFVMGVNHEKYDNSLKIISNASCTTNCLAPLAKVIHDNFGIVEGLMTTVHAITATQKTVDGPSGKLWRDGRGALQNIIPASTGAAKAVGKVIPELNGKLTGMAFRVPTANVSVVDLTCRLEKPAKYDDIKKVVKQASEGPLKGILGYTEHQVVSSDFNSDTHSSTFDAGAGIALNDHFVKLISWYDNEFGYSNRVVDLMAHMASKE

Cc1ccc(NC(=O)NNC(=O)c2cc3ccccc3cc2O)cc1C
EC50 [1]: > 160 µM (inactive)
EC50 [2]: > 38 µM (not active)

CCC(NCc1cc(OC)cc(OC)c1)=C1C(=O)NC(=O)NC1=O
EC50 [3]: > 350 µM (not active)
EC50 [4]: > 350 µM (not active)

Cc1ccc(S(=O)(=O)CCc2nnc(NC(=O)c3ccccn3)s2)cc1
IC50 [5]: 10.2 µM (active)

O=C(NCCCN1CCOCC1)c1ccc2c(=O)n(Cc3cccc(Br)c3)c(=S)[nH]c2c1
IC50 [6]: > 20 µM (inactive)

O=C(C1CCCN(S(=O)(=O)c2cccc3nonc23)C1)N1CCN(c2ccccc2Cl)CC1 (stereo not given)
IC50 [5]: > 100 µM (active)

COC(=O)CCCC1=CC2=CC(=O)C(C)(OC(=O)c3cccs3)C(=O)C2=CN1Cc1ccc2c(c1)OCO2 (stereo not given)
EC50 [3]: > 350 µM (not active)
EC50 [4]: > 350 µM (not active)

Cc1cc(Cl)n2nc(C)c(-c3ccc(Cl)cc3)c2n1
EC50 [1]: > 150 µM (inactive)
CC50 [7]: 27.6 µM (active)
EC50 [2]: > 38 µM (not active)

CCOc1ccccc1-c1nc(C(N)=O)c2nc(O)n(-c3ccc(F)cc3)c2n1
IC50 [6]: > 20 µM (inactive)

O=C(NNC(=O)C1CCN(S(=O)(=O)c2ccc(Cl)cc2)CC1)c1ccc(S(=O)(=O)N2CCCCC2)cc1
IC50 [6]: > 20 µM (inactive)

NS(=O)(=O)c1ccc(CNC(=O)c2csc3c2CCCC3)cc1
EC50 [3]: > 350 µM (not active)
EC50 [4]: > 350 µM (not active)

O=C(CSc1nc[nH]n1)NCCc1ccc(Cl)cc1Cl
EC50 [3]: > 350 µM (not active)
EC50 [4]: 149 µM (active)

CCOC(=O)c1cccc(NS(=O)(=O)c2c(C(=O)N3CCCCCC3)c(C)n(C)c2C)c1
IC50 [6]: > 20 µM (inactive)

NC(=O)c1cc2c3ccccc3ccn2c1-c1ccccc1
EC50 [8]: 0.305 µM (active)
EC50 [9]: 27.4 µM (inconclusive)
EC50 [10]: 5.08 µM (inconclusive)
EC50 [11]: 0.244 µM (active)
IC50 [12]: > 66 µM (inactive)
IC50 [13]: 32.2 µM (inactive)

O=C(NCCCc1ccccc1)Nc1cccc(Cl)c1
EC50 [1]: > 150 µM (inactive)
EC50 [2]: > 38 µM (not active)
EC50 [14]: 43.5 µM (active)

COc1nnc(-c2ccccc2)s1
IC50 [12]: > 66 µM (inactive)
IC50 [13]: > 66 µM (inactive)

COc1cc(OC)c2c(-c3ccccc3)cc(=O)oc2c1C(CCN1CCCC(C)C1)c1ccc(N(C)C)cc1 (stereo not given)
IC50 [5]: 11.4 µM (active)

O=C(c1ccccc1)c1ccc(Oc2ccc(C(=O)O)c(C(=O)O)c2)cc1
IC50 [15]: > 100 µM (not active)

O=C1/C(=C\c2cccnc2)SC(=S)N1C1CCS(=O)(=O)C1 (stereo not given)
EC50 [8]: 22.5 µM (active)
EC50 [9]: > 150 µM (inconclusive)
EC50 [2]: 0.479 µM (active)
EC50 [10]: > 150 µM (not active)
EC50 [11]: 20.4 µM (active)

Cc1ccc(OC(=O)COc2ccccc2C)c(-n2nc3ccccc3n2)c1
IC50 [12]: > 66 µM (inactive)
IC50 [13]: > 66 µM (inactive)

CC1CCc2sc(-c3nnc(S)o3)cc2C1 (stereo not given)
AC50 [16]: 1.2 µM (active)

CC(=O)Nc1cccc(NC(=O)CSc2nn3c(=O)c(C)nnc3s2)c1
IC50 [5]: 9.96 µM (active)

Cn1c(N)c(N2CCN(c3ccccc3)CC2)c(=O)[nH]c1=O
AC50 [16]: 3.9 µM (active)

OC(CNCc1cccc(Br)c1)c1ccccc1 (stereo not given)
EC50 [17]: > 112 µM (not active)
EC50 [18]: 20.7 µM (active)

COc1cccc(N2CCN(C3=C(Cl)C(=O)N(c4cccc(C(F)(F)F)c4)C3=O)CC2)c1
IC50 [15]: > 50 µM (inconclusive)

O=C(CSc1nc(-c2ccccc2)cs1)NCc1ccco1
EC50 [17]: > 112 µM (not active)
EC50 [18]: > 112 µM (not active)

Cc1c(Cl)c([N+](=O)[O-])nn1CC(=O)NC12CC3CC(CC(C3)C1)C2
EC50 [3]: > 350 µM (not active)
EC50 [4]: > 350 µM (not active)

COc1ccc(NC(=O)CCS(=O)(=O)c2ccc3nc(C)sc3c2)cc1OC
EC50 [17]: > 112 µM (not active)
EC50 [18]: > 112 µM (not active)

CCC(C)N(C(=O)CSc1ccc(NC(C)=O)cc1)C1CCS(=O)(=O)C1 (stereo not given)
IC50 [12]: > 66 µM (inactive)
IC50 [13]: > 66 µM (inactive)

COC(=O)c1sccc1NC(=O)Nc1ccc(F)cc1
EC50 [17]: 0.535 µM (active)
EC50 [18]: 1.67 µM (active)

COc1cc(C(=O)Nc2nc3ccc(S(C)(=O)=O)cc3s2)cc(OC)c1C
IC50 [6]: > 20 µM (inactive)

Cc1cc(OC(=O)c2ccco2)c2c3c(c(=O)oc2c1)CCCC3
EC50 [1]: > 160 µM (inactive)
CC50 [7]: 33.1 µM (active)
EC50 [2]: 5.16 µM (active)

CCc1ccc(C(=O)Nn2c(C)nc3ccccc3c2=O)cc1
IC50 [6]: > 20 µM (inactive)

COc1ccc2[nH]cc(/C=C(/C)c3ccncc3)c2c1
GI50 [19]: 2.99 µM (inactive)
GI50 [20]: 16 µM (inactive)
GI50 [21]: 3.07 µM (inactive)

COC1/C=C\C=C(/C)C(=O)NC2=CC(=O)C=C(C2=O)C(OC)C(C)CC(OC)C(OC)C(C)/C=C(/C)C1OC(N)=O (stereo not given)
GI50 [19]: 1.29 µM (inactive)
GI50 [20]: 1.69 µM (inactive)
GI50 [21]: 0.0166 µM (active)

COc1ccc(C2C3CCCC(C3=O)C(c3ccc(OC)cc3)N2N=O)cc1 (stereo not given)
GI50 [19]: 17.9 µM (inactive)
GI50 [20]: 30.5 µM (inactive)
GI50 [21]: 19.9 µM (inactive)

CSCC[C@@H]1C(=O)N(C)[C@H](C(C)(C)C)N1C(=O)c1ccccc1
GI50 [20]: > 100 µM (inactive)
GI50 [21]: > 100 µM (inactive)

CCCSCC(P(=O)(O)O)P(=O)(O)O.NC1CCCCC1
GI50 [19]: > 100 µM (inactive)
GI50 [20]: > 100 µM (inactive)
GI50 [21]: > 100 µM (inactive)

CCOC(=O)C(CC(C)C)NC(=O)C(Cc1ccc(N(CCCl)CCCl)cc1)NC(C)=O (stereo not given)
GI50 [19]: 1.91 µM (inactive)
GI50 [20]: 2.2 µM (inactive)
GI50 [21]: 1.93 µM (inactive)

CCCCC#CS(=O)(=O)C(F)(F)F
GI50 [19]: 27.7 µM (inactive)
GI50 [20]: 51.9 µM (inactive)
GI50 [21]: 19.7 µM (inactive)

N#C/C(=C\c1ccc(O)cc1)C(N)=O
GI50 [19]: > 100 µM (inactive)
GI50 [20]: > 100 µM (inactive)
GI50 [21]: > 100 µM (inactive)

CN(C)c1ccc(/C=N/NC(=O)c2ccn(C)n2)cc1
AC50 [16]: 25.6 µM (active)

COc1ccc(Cc2nnc(N/N=C/c3ccc(O)cc3O)nc2O)cc1OC
AC50 [22]: 8.28 µM (active)
IC50 [5]: 1.78 µM (active)

CC1(C)CC(=O)C(/C=N/CCN2CCN(C(=S)Nc3cccc(Cl)c3)CC2)=C(O)C1
EC50 [3]: > 350 µM (not active)
EC50 [4]: > 350 µM (not active)

O=C(N/N=C/c1ccc(O)c(O)c1)C1CC1
IC50 [23]: 5.55 µM (active)
AC50 [16]: 0.127 µM (active)

Cc1nc(C#N)c(N/N=C/c2c(F)cccc2Cl)o1
AC50 [16]: 2.54 µM (active)

Cc1cc(C)cc(NC2=C(N)C(=O)c3ccccc3C2=O)c1
IC50 [5]: 37.3 µM (active)

CC(C)CC1NC(=O)C(NC(=O)c2ncccc2O)C(C)OC(=O)C(c2ccccc2)N(C)C(=O)C(C)NC(=O)C(C(C)C(C)C)N(C)C(=O)CN(C)C(=O)C2CC(O)CN2C1=O (stereo not given) ({Picolinoyl(3-OH)}-TL[Hyp][Sar][X56]A[NMePhg]; ester 1-C; configuration not given here)
GI50 [19]: > 109 µM (inactive)
GI50 [20]: 51.3 µM (inactive)
GI50 [21]: 6.21 µM (inactive)
